Key:
HCT-116 [1] = assay: Concentration which produces 50% inhibition of growth of human colon tumor HCT 116; assay type: functional, cell-based
A549 [2] = assay: Concentration which produces 50% inhibition of growth of human lung carcinoma cell line A549; assay type: functional, cell-based
B16 [3] = assay: Concentration which produces 50% inhibition of growth of murine melanoma B16 cell line; assay type: functional, cell-based; details: Mus musculus
PC-3 [4] = assay: Concentration which produces 50% inhibition of growth of prostate tumor cell line PC-3; assay type: functional, cell-based; details: Homo sapiens
MCF7 [5] = assay: Concentration which produces 50% inhibition of growth of human breast tumor MCF-7 cell line; assay type: functional, cell-based
HCT-116 [6] = assay: Compound was tested for inhibition of growth of human colon tumor HCT116 up to a conc of 10 uM; NI means no inhibition; assay type: functional, cell-based
PC-3 [7] = assay: Compound was tested for inhibition of growth of prostate tumor cell line PC-3 up to a conc of 10 uM; NI means no inhibition; assay type: functional, cell-based, Homo sapiens
MCF7 [8] = assay: Compound was tested for inhibition of growth of human breast tumor MCF-7 cell line up to a conc of 10 uM; NI means no inhibition; assay type: functional, cell-based
A549 [9] = assay: Compound was tested for inhibition of growth of human lung carcinoma cell line A549 up to a conc of 10 uM; NI means no inhibition; assay type: functional, cell-based
B16 [10] = assay: In vivo antitumor activity against BDF1 mice bearing B16 murine melanoma cells at a dose of 30 mg/kg/day; assay type: functional, Mus musculus
B16 [11] = assay: In vivo antitumor activity against BDF1 mice bearing B16 murine melanoma cells at a dose of 10 mg/kg/day; assay type: functional, Mus musculus
B16 [12] = assay: In vivo antitumor activity against BDF1 mice bearing B16 murine melanoma cells at a dose of 100 mg/kg/day; assay type: functional, Mus musculus
B16 [13] = assay: In vivo antitumor activity against BDF1 mice bearing B16 murine melanoma cells at a dose of 3 mg/kg/day; assay type: functional, Mus musculus

Structure (SMILES) | IC50 (HCT-116 [1]) | IC50 (A549 [2]) | IC50 (B16 [3]) | IC50 (PC-3 [4]) | IC50 (MCF7 [5]) | IC50 (HCT-116 [6]) | IC50 (PC-3 [7]) | IC50 (MCF7 [8]) | IC50 (A549 [9]) | Inhibition rate (B16 [10]) | Inhibition rate (B16 [11]) | Inhibition rate (B16 [12]) | Inhibition rate (B16 [13])
COc1ccc(-c2oc(O)nc2-c2cc(OC)c(OC)c(OC)c2)cc1 | 21.7 nM | 16.9 nM | 14.5 nM | 20.1 nM | 28.4 nM | – | – | – | – | – | – | – | –
COc1ccc(/C=C\c2cc(OC)c(OC)c(OC)c2)cc1O [COMBRETASTATIN A4] | 0.9 nM | 2.1 nM | 1 nM | 2.7 nM | 2.7 nM | – | – | – | – | – | – | – | –
COc1cc(-n2c(-c3ccc4c(c3)OCO4)coc2=O)cc(OC)c1OC | 57.4 nM | 64.5 nM | 45 nM | 70.6 nM | 39.7 nM | – | – | – | – | – | – | – | –
COc1ccc(-c2nc(O)oc2-c2cc(OC)c(OC)c(OC)c2)cc1 | – | – | 1390 nM | – | – | Not Active | Not Active | Not Active | Not Active | – | – | – | –
COc1ccc(-n2c(-c3cc(OC)c(OC)c(OC)c3)coc2=O)cc1 | – | – | 1880 nM | – | – | Not Active | Not Active | Not Active | Not Active | – | – | – | –
COc1cc(-c2nc(O)oc2-c2ccc3c(c2)OCO3)cc(OC)c1OC | 101 nM | 63.1 nM | 89.3 nM | 112 nM | 78.5 nM | – | – | – | – | – | – | – | –
COc1cccc2c1C(=O)c1c(O)c3c(c(O)c1C2=O)C[C@@](O)(C(=O)CO)C[C@@H]3O[C@H]1C[C@H](N)[C@H](O)[C@H](C)O1 [DOXORUBICIN] | – | – | – | – | – | – | – | – | – | – | – | – | 55%
COc1ccc(-c2coc(=O)n2-c2cc(OC)c(OC)c(OC)c2)cc1 | 11 nM | 19.9 nM | 7.9 nM | 7.5 nM | 10.5 nM | – | – | – | – | – | – | – | –
COc1cc(-c2nc(O)oc2-c2ccc3ccccc3c2)cc(OC)c1OC | 11.2 nM | 10.8 nM | 7.4 nM | 7.1 nM | 16.7 nM | – | – | – | – | – | – | – | –

Continued by falling IC50 (B16 [3]), values first:

IC50 (HCT-116 [1]) | IC50 (A549 [2]) | IC50 (B16 [3]) | IC50 (PC-3 [4]) | IC50 (MCF7 [5]) | IC50 (HCT-116 [6]) | IC50 (PC-3 [7]) | IC50 (MCF7 [8]) | IC50 (A549 [9]) | Structure (SMILES) | Inhibition rate (B16 [10]) | Inhibition rate (B16 [11]) | Inhibition rate (B16 [12]) | Inhibition rate (B16 [13])
4.9 nM | 5.9 nM | 5.8 nM | 3.1 nM | 3.7 nM | – | – | – | – | COc1cc(-n2c(-c3ccc4ccccc4c3)coc2=O)cc(OC)c1OC | – | – | – | –
6.1 nM | 7.9 nM | 5.4 nM | 6.4 nM | 5.7 nM | – | – | – | – | COc1ccc(-c2oc(O)nc2-c2cc(OC)c(OC)c(OC)c2)cc1O | – | – | – | –
3.7 nM | 3.8 nM | 2.4 nM | 2.1 nM | 4.9 nM | – | – | – | – | COc1ccc(-c2oc(O)nc2-c2cc(OC)c(OC)c(OC)c2)cc1N | – | – | – | –
3.2 nM | 4.3 nM | 1.1 nM | 2.5 nM | 1.8 nM | – | – | – | – | COc1ccc(-c2coc(=O)n2-c2cc(OC)c(OC)c(OC)c2)cc1N | 61% | 34% | 67% | –
1.7 nM | 3.1 nM | 0.9 nM | 2.3 nM | 2.9 nM | – | – | – | – | COc1ccc(-c2coc(=O)n2-c2cc(OC)c(OC)c(OC)c2)cc1O | – | – | – | –
